Molecular target: T1, Alpha glucosidase (Homo sapiens, UniProt O43451+P10253+P14410+Q2M2H8)
Assay: Inhibition of alpha-glucosidase (unknown origin) using p-nitro phenyl glucopyranoside as substrate preincubated for 5 mins followed by substrate addition measured after 30 mins
Assay type: protein assay

Row | Structure (SMILES) | IC50 [nM]
1 | CN(C)c1ccc(C(Nc2ccc(-c3ccc(NC(c4ccc(N(C)C)cc4)n4nc(-c5cc(=O)oc6ccccc56)oc4=S)cc3)cc2)n2nc(-c3cc4ccccc4oc3=O)oc2=S)cc1 (stereo unspecified) | 70 to 760
2 | O=c1cc(-c2nn(C(Nc3ccc(NC(c4cccc(Br)c4)n4nc(-c5cc6ccccc6oc5=O)oc4=S)cc3)c3cccc(Br)c3)c(=S)o2)c2ccccc2o1 (stereo unspecified) | 70 to 760
3 | O=c1cc(-c2nn(C(Nc3ccc(-c4ccc(NC(c5cccc(Cl)c5)n5nc(-c6cc7ccccc7oc6=O)oc5=S)cc4)cc3)c3cccc(Cl)c3)c(=S)o2)c2ccccc2o1 (stereo unspecified) | 70 to 760
4 | Cc1ccc(C(Nc2ccc(Oc3ccc(NC(c4ccc(C)cc4)n4nc(-c5cc6ccccc6oc5=O)oc4=S)cc3)cc2)n2nc(-c3cc4ccccc4oc3=O)oc2=S)cc1 (stereo unspecified) | 70 to 760
5 | O=c1oc2ccccc2cc1-c1nn(C(Nc2ccc(Oc3ccc(NC(c4ccc(Cl)cc4Cl)n4nc(-c5cc6ccccc6oc5=O)oc4=S)cc3)cc2)c2ccc(Cl)cc2Cl)c(=S)o1 (stereo unspecified) | 70 to 760
6 | Cc1ccc(C(Nc2ccc(NC(c3ccc(C)cc3)n3nc(-c4cc(=O)oc5ccccc45)oc3=S)cc2)n2nc(-c3cc4ccccc4oc3=O)oc2=S)cc1 (stereo unspecified) | 70 to 760
7 | O=c1cc(-c2nn(C(Nc3ccc(NC(c4ccc(Cl)cc4)n4nc(-c5cc6ccccc6oc5=O)oc4=S)cc3)c3ccc(Cl)cc3)c(=S)o2)c2ccccc2o1 (stereo unspecified) | 70 to 760
8 | Cc1ccc(C(Nc2ccc(-c3ccc(NC(c4ccc(C)cc4)n4nc(-c5cc(=O)oc6ccccc56)oc4=S)cc3)cc2)n2nc(-c3cc4ccccc4oc3=O)oc2=S)cc1 (stereo unspecified) | 70 to 760
9 | COc1cccc(C(Nc2ccc(-c3ccc(NC(c4cccc(OC)c4)n4nc(-c5cc(=O)oc6ccccc56)oc4=S)cc3)cc2)n2nc(-c3cc4ccccc4oc3=O)oc2=S)c1 (stereo unspecified) | 70 to 760
10 | O=c1cc(-c2nn(C(Nc3ccc(-c4ccc(NC(c5cccc(Br)c5)n5nc(-c6cc7ccccc7oc6=O)oc5=S)cc4)cc3)c3cccc(Br)c3)c(=S)o2)c2ccccc2o1 (stereo unspecified) | 70 to 760
11 | CN(C)c1ccc(C(Nc2ccc(NC(c3ccc(N(C)C)cc3)n3nc(-c4cc(=O)oc5ccccc45)oc3=S)cc2)n2nc(-c3cc4ccccc4oc3=O)oc2=S)cc1 (stereo unspecified) | 70 to 760
12 | CN(C)c1ccc(C(Nc2ccc(Oc3ccc(NC(c4ccc(N(C)C)cc4)n4nc(-c5cc6ccccc6oc5=O)oc4=S)cc3)cc2)n2nc(-c3cc4ccccc4oc3=O)oc2=S)cc1 (stereo unspecified) | 70 to 760
13 | O=c1oc2ccccc2cc1-c1nn(C(Nc2ccc(Oc3ccc(NC(c4ccc([N+](=O)[O-])cc4)n4nc(-c5cc6ccccc6oc5=O)oc4=S)cc3)cc2)c2ccc([N+](=O)[O-])cc2)c(=S)o1 (stereo unspecified) | 70 to 760
14 | O=c1cc(-c2nn(C(Nc3ccc(NC(c4ccc([N+](=O)[O-])cc4)n4nc(-c5cc6ccccc6oc5=O)oc4=S)cc3)c3ccc([N+](=O)[O-])cc3)c(=S)o2)c2ccccc2o1 (stereo unspecified) | 70 to 760
15 | O=c1cc(-c2nn(C(Nc3ccc(NC(c4cccc(Cl)c4)n4nc(-c5cc6ccccc6oc5=O)oc4=S)cc3)c3cccc(Cl)c3)c(=S)o2)c2ccccc2o1 (stereo unspecified) | 70 to 760
16 | O=c1cc(-c2nn(C(Nc3ccc(NC(c4ccc(F)cc4)n4nc(-c5cc6ccccc6oc5=O)oc4=S)cc3)c3ccc(F)cc3)c(=S)o2)c2ccccc2o1 (stereo unspecified) | 70 to 760
17 | O=c1cc(-c2nn(C(Nc3ccc(-c4ccc(NC(c5ccc(Br)cc5)n5nc(-c6cc7ccccc7oc6=O)oc5=S)cc4)cc3)c3ccc(Br)cc3)c(=S)o2)c2ccccc2o1 (stereo unspecified) | 70 to 760
18 | O=c1oc2ccccc2cc1-c1nn(C(Nc2ccc(Oc3ccc(NC(c4ccc(Br)cc4)n4nc(-c5cc6ccccc6oc5=O)oc4=S)cc3)cc2)c2ccc(Br)cc2)c(=S)o1 (stereo unspecified) | 70 to 760
19 | O=c1cc(-c2nn(C(Nc3ccc(-c4ccc(NC(c5ccc(Cl)cc5)n5nc(-c6cc7ccccc7oc6=O)oc5=S)cc4)cc3)c3ccc(Cl)cc3)c(=S)o2)c2ccccc2o1 (stereo unspecified) | 70 to 760
20 | O=c1cc(-c2nn(C(Nc3ccc(-c4ccc(NC(c5ccc([N+](=O)[O-])cc5)n5nc(-c6cc7ccccc7oc6=O)oc5=S)cc4)cc3)c3ccc([N+](=O)[O-])cc3)c(=S)o2)c2ccccc2o1 (stereo unspecified) | 70 to 760
21 | O=c1oc2ccccc2cc1-c1nn(C(Nc2ccc(Oc3ccc(NC(c4ccc(Cl)cc4)n4nc(-c5cc6ccccc6oc5=O)oc4=S)cc3)cc2)c2ccc(Cl)cc2)c(=S)o1 (stereo unspecified) | 70 to 760
22 | COc1cccc(C(Nc2ccc(NC(c3cccc(OC)c3)n3nc(-c4cc(=O)oc5ccccc45)oc3=S)cc2)n2nc(-c3cc4ccccc4oc3=O)oc2=S)c1 (stereo unspecified) | 70 to 760
23 | O=c1cc(-c2nn(C(Nc3ccc(NC(c4ccc(Cl)cc4Cl)n4nc(-c5cc6ccccc6oc5=O)oc4=S)cc3)c3ccc(Cl)cc3Cl)c(=S)o2)c2ccccc2o1 (stereo unspecified) | 70 to 760
24 | O=c1cc(-c2nn(C(Nc3ccc(-c4ccc(NC(c5ccc(Cl)cc5Cl)n5nc(-c6cc7ccccc7oc6=O)oc5=S)cc4)cc3)c3ccc(Cl)cc3Cl)c(=S)o2)c2ccccc2o1 (stereo unspecified) | 70 to 760

Molecular target: T1, Alpha glucosidase
Assay: Inhibition of alpha-glucosidase (unknown origin) using p-nitrophenyl-alpha-d-glucopyranoside as substrate preincubated for 15 mins followed by substrate addition measured after 30 mins by spectrophotometric analysis
Assay type: protein assay

Row | Structure (SMILES) | IC50 [nM]
25 | O=C(COc1ccc2ccc(=O)oc2c1)N/N=C1\C(=O)N(Cc2ccccc2F)c2ccc(Cl)cc21 | 2500
26 | Clc1ccccc1CSc1nc(-c2ccc(Br)cc2)cc(-c2cccc(Br)c2)n1 | 19000 to 38000
27 | Fc1ccc(Cn2cc(CSc3nc4cc(Cl)ccc4s3)nn2)cc1 | 20000 to 61000
28 | Fc1ccccc1Cn1cc(CSc2nc3cc(Cl)ccc3s2)nn1 | 20000 to 61000
29 | Fc1cccc(Cn2cc(CSc3nc4cc(Cl)ccc4s3)nn2)c1 | 20000 to 61000
30 | Cc1ccc(-c2cc(-c3cccc(Br)c3)nc(SCc3ccccc3Cl)n2)cc1 | 19000 to 38000
31 | Brc1ccccc1Cn1cc(CSc2nc3ccccc3s2)nn1 | 20000 to 61000
32 | Clc1ccccc1CSc1nc(-c2ccc(Br)cc2)cc(-c2ccc(Br)cc2)n1 | 19000 to 38000
33 | Clc1ccc2sc(SCc3cn(Cc4ccccc4Cl)nn3)nc2c1 | 20000 to 61000
34 | Clc1ccc(Cn2cc(CSc3nc4cc(Cl)ccc4s3)nn2)cc1 | 20000 to 61000
35 | Clc1ccc2sc(SCc3cn(Cc4ccccc4)nn3)nc2c1 | 20000 to 61000
36 | Cc1ccc(-c2cc(-c3cccc(Br)c3)nc(SCc3ccc(F)cc3)n2)cc1 | 19000 to 38000
37 | Brc1ccc(Cn2cc(CSc3nc4ccccc4s3)nn2)cc1 | 20000 to 61000
38 | Fc1cccc(CSc2nc(-c3ccc(Br)cc3)cc(-c3ccc(Br)cc3)n2)c1 | 19000 to 38000
39 | Clc1cc(Cl)cc(Cn2cc(CSc3nc4cc(Cl)ccc4s3)nn2)c1 | 20000 to 61000
40 | CC(C)(C)c1ccc(Cn2cc(CSc3nc4cc(Cl)ccc4s3)nn2)cc1 | 20000
41 | Cc1ccc(-c2cc(-c3cccc(Br)c3)nc(SCc3cccc(F)c3)n2)cc1 | 19000 to 38000
42 | Clc1ccc2sc(SCc3cn(Cc4ccccc4Br)nn3)nc2c1 | 20000 to 61000
43 | Clc1ccc2sc(SCc3cn(Cc4ccc(Br)cc4)nn3)nc2c1 | 20000 to 61000
44 | Cc1ccc(-c2cc(-c3ccc(Br)cc3)nc(SCc3ccccc3Br)n2)cc1 | 19000 to 38000

Molecular target: T1, Alpha glucosidase
Assay: Inhibition of alpha-glucosidase (unknown origin) using pNPG as substrate preincubated for 10 mins followed by substrate addition measured after 30 mins
Assay type: protein assay

Row | Structure (SMILES) | IC50 [nM]
45 | O=C(N/N=C/c1cc(O)c(O)c(O)c1)c1cc2ccccc2[nH]1 | 2300
46 | O=C(N/N=C/c1c(O)cc(O)cc1O)c1cc2ccccc2[nH]1 | 2300 to 226000
47 | O=C(N/N=C/c1cccc(O)c1O)c1cc2ccccc2[nH]1 | 2300 to 226000
48 | O=C(N/N=C/c1ccc(O)cc1)c1cc2ccccc2[nH]1 | 2300 to 226000
49 | Clc1cccc(-c2[nH]c3ccccc3c2-c2nc(-c3ccccc3)c(-c3ccccc3)n2-c2ccccc2)c1 | 8300 to 98000
50 | CC(=O)Nc1ccc(-n2c(-c3c(-c4ccccc4)[nH]c4ccc(F)cc34)nc(-c3ccccc3)c2-c2ccccc2)cc1 | 8300
51 | COc1ccc(/C=N/NC(=O)c2cc3ccccc3[nH]2)c(I)c1O | 2300 to 226000
52 | Fc1ccc2[nH]c(-c3ccccc3)c(-c3nc(-c4ccccc4)c(-c4ccccc4)n3-c3cccc(Cl)c3)c2c1 | 8300 to 98000
53 | O=C(N/N=C/c1cc(O)cc(O)c1)c1cc2ccccc2[nH]1 | 2300 to 226000
54 | COc1ccc(/C=N/NC(=O)c2cc3ccccc3[nH]2)cc1O | 2300 to 226000
55 | COc1cc(/C=N/NC(=O)c2cc3ccccc3[nH]2)ccc1O | 2300 to 226000
56 | O=C(N/N=C/c1ccc(Br)c(F)c1)c1cc2ccccc2[nH]1 | 2300 to 226000
57 | O=C(N/N=C/c1cc(O)ccc1O)c1cc2ccccc2[nH]1 | 2300 to 226000
58 | O=C(N/N=C/c1ccccc1O)c1cc2ccccc2[nH]1 | 2300 to 226000
59 | O=C(N/N=C/c1ccc(Cl)cc1)c1cc2ccccc2[nH]1 | 2300 to 226000

Molecular target: not listed separately
Assay: Inhibition of yeast alpha-glucosidase
Design: species or system Saccharomyces cerevisiae

Row | Structure (SMILES) | IC50 [nM]
60 | Cc1cc2c(c(=O)[nH]1)C(=O)O/C2=C\c1ccccc1 | 1000 to 53000
61 | O=c1cc(-c2cccc(OCc3cccc(SC(F)(F)F)c3)c2)oc2ccccc12 | 1200 to 88000
62 | Cc1cc2c(c(=O)[nH]1)C(=O)O/C2=C\c1ccc(Br)cc1 | 1000 to 53000
63 | Cc1cc2c(c(=O)[nH]1)C(=O)O/C2=C\c1cc(Br)cs1 | 240
64 | O=c1cc(-c2cccc(OCc3ccccc3)c2)oc2ccccc12 | 1200 to 88000
65 | O=c1cc(-c2cccc(OCc3cc(C(F)(F)F)ccc3C(F)(F)F)c2)oc2ccccc12 | 1200
66 | CC(C)(C)c1ccc(COc2cccc(-c3cc(=O)c4ccccc4o3)c2)cc1 | 1200 to 88000
67 | Cc1cccc(COc2cccc(-c3cc(=O)c4ccccc4o3)c2)c1 | 1200 to 88000
68 | Cc1cc2c(c(=O)[nH]1)C(=O)O/C2=C\c1nccn1C | 900
69 | Cc1cc2c(c(=O)[nH]1)C(=O)O/C2=C\c1cccs1 | 240 to 10000
70 | COc1ccc(COc2cccc(-c3cc(=O)c4ccccc4o3)c2)cc1 | 1200 to 88000
71 | Cc1cc2c(c(=O)[nH]1)C(=O)O/C2=C\c1ccccc1C(F)(F)F | 1000 to 53000
72 | O=c1cc(-c2cccc(OCc3cccc(F)c3F)c2)oc2ccccc12 | 3400
73 | N#Cc1ccc(COc2cccc(-c3cc(=O)c4ccccc4o3)c2)cc1 | 1200 to 88000
74 | N#Cc1cccc(COc2cccc(-c3cc(=O)c4ccccc4o3)c2)c1 | 1200 to 88000
75 | Cc1cc2c(c(=O)[nH]1)C(=O)O/C2=C\c1ccc(F)c(F)c1 | 1000
76 | Cc1cc2c(c(=O)[nH]1)C(=O)O/C2=C\c1ccc(O)c(O)c1 | 1000 to 53000
77 | Cc1cc2c(c(=O)[nH]1)C(=O)O/C2=C\c1cccc(Br)c1 | 1000 to 53000
78 | COc1ccc(-c2csc(/C=C3\OC(=O)c4c3cc(C)[nH]c4=O)c2)cn1 | 8300 to 86000
79 | Cc1cc2c(c(=O)[nH]1)C(=O)O/C2=C\c1cc(-c2ccccc2)cs1 | 8300
80 | O=c1cc(-c2cccc(OCc3ccc([N+](=O)[O-])cc3)c2)oc2ccccc12 | 1200 to 88000
81 | Cc1cc2c(c(=O)[nH]1)C(=O)O/C2=C\c1cc(-c2ccnc(N3CCN(C(=O)OC(C)(C)C)CC3)c2)cs1 | 8300 to 86000

From ChEMBL document CHEMBL4304757, “Synthetic heterocyclic candidates as promising α-glucosidase inhibitors: An overview” (Eur J Med Chem, 2019)
